Reference: ChEMBL document CHEMBL3832022, “DailyMed|setid=50ee3815-7675-4bc0-a88a-ab3886aea795 | ESTRING - estradiol ring|Physicians Total Care, Inc”

Columns and labels:
[1] = species on record: Homo sapiens; experiment: (§1) Mean steady-state pharmacokinetic parameters for Estradiol evaluated after a single dose of 2 mg of Estradiol as estridiol vaginal ring; type: ADME, organism-based; set-up: dose 2 mg, route vaginal; conditions: in vivo, other, dosed compound id 17, dosed compound name ESTRADIOL, gender female, regimen Single dose, sampling time1 12 weeks, tissue Serum
[2] = as §1; type: ADME, organism-based; set-up: dose 2 mg, route vaginal; conditions: human, in vivo, dosed compound id 17, dosed compound name ESTRADIOL, gender female, regimen Single dose, sampling time1 12 weeks, tissue Serum

Cmax [1]: 0.0556 ng/mL | Cmax ([2]; 2 mg): 0.0632 ng/mL | Tmax ([2]; dose 2 mg, route vaginal): 30 to 60 min | concentration at 12 weeks ([2]; dose 2 mg, route vaginal, read-out: Css-12w): 0.008 ng/mL
Compound: C[C@]12CC[C@@H]3c4ccc(O)cc4CC[C@H]3[C@@H]1CC[C@@H]2O [ESTRADIOL]
